Laboratory results: US8012956B2, “Tropane compounds” (Exelixis, Inc., priority 2007, dated 2011)

Molecular target: HSP90 (Homo sapiens, UniProt P07900)
Test: HSP90 inhibition (HSP90 IC50)
Format: biochemical

| IC50 [nM] | Compound |
| --- | --- |
| < 500 | COc1ccc(CNC(=O)c2ccc(N3[C@@H]4CC[C@H]3C[C@@H](NC(=O)c3cccc(OC)c3C)C4)nc2)cc1OC [N {[3,4-bis(methyloxy)phenyl]methyl}-6-[3-endo-({[2-methyl-3-(methyloxy)phenyl]carbonyl}amino)-8-azabicyclo[3.2.1]oct-8-yl]pyridine-3-carboxamide] |
| 500 to 999 | CCN1CCC(NC(=O)c2ccc(N3[C@@H]4CC[C@H]3C[C@@H](NC(=O)c3cc(C)c(C(N)=O)cc3C)C4)nc2)CC1 [N-[8-(5-{[(1-ethylpiperidin-4-yl)amino]carbonyl}pyridin-2-yl)-8-azabicyclo[3.2.1]oct-3-endo-yl]-2,5-dimethylbenzene-1,4-dicarboxamide] |
| < 500 | COc1cccc(C(=O)N[C@H]2C[C@H]3CC[C@@H](C2)N3c2ccc(C(=O)NC3CCNCC3)cn2)c1C [6-[3-endo-({[2-methyl-3-(methyloxy)phenyl]carbonyl}amino)-8-azabicyclo[3.2.1]oct-8-yl]-N-piperidin-4-ylpyridine-3-carboxamide] |
| < 500 | COCCC(=O)c1ccc(N2[C@@H]3CC[C@H]2C[C@@H](NC(=O)c2ccc(C(N)=O)c(NCC4CC4)c2)C3)nc1 [2-[(cyclopropylmethyl)amino]-N4-(8-{5-[3-(methyloxy)propanoyl]pyridin-2-yl}-8-azabicyclo[3.2.1]oct-3-endo-yl)benzene-1,4-dicarboxamide] |
| < 500 | Cc1cc(C(=O)N[C@H]2C[C@H]3CC[C@@H](C2)N3c2ccc(C(=O)NC3CN(C)C3)cn2)c(C)cc1C(N)=O [2,5-dimethyl-N-[8-(5-{[(1-methylazetidin-3-yl)amino]carbonyl}pyridin-2-yl)-8-azabicyclo[3.2.1]oct-3-endo-yl]benzene-1,4-dicarboxamide] |
| < 500 | CCC(CC)Nc1cc(C(=O)N[C@H]2C[C@H]3CC[C@@H](C2)N3c2ccc(C(C)=O)cn2)ccc1C(N)=O [N4-[8-(5-acetylpyridin-2-yl)-8-azabicyclo[3.2.1]oct-3-endo-yl]-2-[(1-ethylpropyl)amino]benzene-1,4-dicarboxamide] |
| < 500 | N4-{8-[5- (cyclopropylcarbonyl)pyridin-2-yl]-8- azabicyclo[3.2.1]oct-3-endo-yl}-2- [(cis-4-hydroxy-4- methylcyclohexyl)amino]benzene- 1,4-dicarboxamide |
| < 500 | NC(=O)c1cc(Cl)c(C(=O)N[C@H]2C[C@H]3CC[C@@H](C2)N3c2ccc(C(=O)NCc3ccccc3)cn2)cc1Cl [2,5-dichloro-N-[8-(5-{[(phenylmethyl)amino]carbonyl}pyridin-2-yl)-8-azabicyclo[3.2.1]oct-3-endo-yl]benzene-1,4-dicarboxamide] |
| < 500 | CC(=O)c1ccc(N2[C@@H]3CC[C@H]2C[C@@H](NC(=O)c2ccc(C(N)=O)c(Br)c2)C3)nc1 [N4-[8-(5-acetylpyridin-2-yl)-8-azabicyclo[3.2.1]oct-3-endo-yl]-2-bromobenzene-1,4-dicarboxamide] |
| 2000 to 10000 | C[C@H](NC(=O)c1ccc(N2C3CCC2CC(NC(=O)c2cccc(N[C@H]4CC[C@H](O)CC4)c2)C3)nc1)c1ccc(N2CCN(C)CC2)cc1 (stereo partly drawn) [6-{3-endo-[({3-[(4-hydroxycyclohexyl)amino]phenyl}carbonyl)amino]-8-azabicyclo[3.2.1]oct-8-yl}-N-{(1S)-1-[4-(4-methylpiperazin-1-yl)phenyl]ethyl}pyridine-3-carboxamide] |
| 500 to 999 | COc1cccc(C(=O)N[C@H]2C[C@H]3CC[C@@H](C2)N3c2ccc(C(=O)NCc3ccc(Br)cc3)cn2)c1C [N-[(4-bromophenyl)methyl]-6-[3-endo-({[2-methyl-3-(methyloxy)phenyl]carbonyl}amino)-8-azabicyclo[3.2.1]oct-8-yl]pyridine-3-carboxamide] |
| < 500 | CC(C)C(O)CC(=O)c1ccc(N2[C@@H]3CC[C@H]2C[C@@H](NC(=O)c2ccc(C(N)=O)c(NCC4CC4)c2)C3)nc1 (stereo partly drawn) [2-[(cyclopropylmethyl)amino]-N4-{8-[5-(3-hydroxy-4-methylpentanoyl)pyridin-2-yl]-8-azabicyclo[3.2.1]oct-3-endo-yl}benzene-1,4-dicarboxamide] |
| 500 to 999 | CC(=O)c1ccc(N2[C@@H]3CC[C@H]2C[C@@H](NC(=O)c2ccc(C(N)=O)c(NCCCNC(C)C)c2)C3)nc1 [N4-[8-(5-acetylpyridin-2-yl)-8-azabicyclo[3.2.1]oct-3-endo-yl]-2-({3-[(1-methylethyl)amino]propyl}amino) benzene-1,4-dicarboxamide] |
| < 500 | COc1ccc(Nc2cc(C(=O)N[C@H]3C[C@H]4CC[C@@H](C3)N4c3ccc(C(C)=O)cn3)ccc2C(N)=O)cc1OCCN(C)C [N4-[8-(5-acetylpyridin-2-yl)-8-azabicyclo[3.2.1]oct-3-endo-yl]-2-{[3-{[2-(dimethylamino)ethyl]oxy}-4-(methyloxy)phenyl]amino}benzene-1,4-dicarboxamide] |
| 1000 to 2000 | COc1cccc(C(=O)N[C@H]2C[C@H]3CC[C@@H](C2)N3c2ccc(C(=O)NCCc3ccncc3)cn2)c1C [6-[3-endo-({[2-methyl-3-(methyloxy)phenyl]carbonyl}amino)-8-azabicyclo[3.2.1]oct-8-yl]-N-(2-pyridin-4-ylethyl)pyridine-3-carboxamide] |
| < 500 | CCC(CC)Nc1cc(C(=O)NC2CC3CCC(C2)N3c2ccc(C(=O)N[C@@H]3CCNC3)cn2)ccc1C(N)=O (stereo partly drawn) [2-[(1-ethylpropyl)amino]-N4-[8-(5-{[(3R)-pyrrolidin-3-ylamino]carbonyl}pyridin-2-yl)-8-azabicyclo[3.2.1]oct-3-endo-yl]benzene-1,4-dicarboxamide] |
| < 500 | C[C@H](NC(=O)c1ccc(N2[C@@H]3CC[C@H]2C[C@@H](NC(=O)c2ccc(C(N)=O)c(NC4CCN(S(C)(=O)=O)CC4)c2)C3)nc1)c1ccc(N2CCN(C)CC2)cc1 [N4-(8-{5-[({(1S)-1-[4-(4-methylpiperazin-1-yl)phenyl]ethyl}amino)carbonyl]pyridin-n-2-yl}-8-azabicyclo[3.2.1]oct-3-endo-yl)-2-{[1-(methylsulfonyl)piperidin-4-yl]amino}benzene-1,4-dicarboxamide] |
| 500 to 999 | C=CCc1c(OC)cccc1C(=O)N[C@H]1C[C@H]2CC[C@@H](C1)N2c1ccc(C(=O)NCc2ccccc2)cn1 [6-[3-endo-({[3-(methyloxy)-2-prop-2-en-1-ylphenyl]carbonyl}amino)-8-azabicyclo[3.2.1]oct-8-yl]-N-(phenylmethyl)pyridine-3-carboxamide] |
| 1000 to 2000 | COc1cccc(C(=O)N[C@H]2C[C@H]3CC[C@@H](C2)N3c2ccc(C(=O)NCCN3CCCCC3)cn2)c1C [6-[3-endo-({[2-methyl-3-(methyloxy)phenyl]carbonyl}amino)-8-azabicyclo[3.2.1]oct-8-yl]-N-(2-piperidin-1-ylethyl)pyridine-3-carboxamide] |
| < 500 | Cc1cc(C(N)=O)c(NC(C(C)C)C(C)C)cc1C(=O)N[C@H]1C[C@H]2CC[C@@H](C1)N2c1ccc(C(=O)C2CC2)cn1 [N-{8-[5-(cyclopropylcarbonyl)pyridin-2-yl]-8-azabicyclo[3.2.1]oct-3-endo-yl}-2-methyl-5-{[2-methyl-1-(1-methylethyl)propyl]amino}benzene-1,4-dicarboxamide] |
| 1000 to 2000 | CCCNC(=O)c1ccc(N2[C@@H]3CC[C@H]2C[C@@H](NC(=O)c2cccc(OC)c2C)C3)nc1 [6-[3-endo-({[2-methyl-3-(methyloxy)phenyl]carbonyl}amino)-8-azabicyclo[3.2.1]oct-8-yl]-N-propylpyridine-3-carboxamide] |
| < 500 | COc1cccc(C(=O)NC2CC3CCC(C2)N3c2ccc(C(=O)N[C@@H]3CCN(C)C3)cn2)c1C (stereo partly drawn) [6-[3-endo-({[2-methyl-3-(methyloxy)phenyl]carbonyl}amino)-8-azabicyclo[3.2.1]oct-8-yl]-N-[(3R)-1-methylpyrrolidin-3-yl]pyridine-3-carboxamide] |
| < 500 | CCCC(CCC)Nc1cc(C(=O)N[C@H]2C[C@H]3CC[C@@H](C2)N3c2ccc(C(C)=O)cn2)ccc1C(N)=O [N4-[8-(5-acetylpyridin-2-yl)-8-azabicyclo[3.2.1]oct-3-endo-yl]-2-[(1-propylbutyl)amino]benzene-1,4-dicarboxamide] |
| < 500 | Cc1cc(C(=O)NC2CC3CCC(C2)N3c2ccc(C(=O)N[C@H]3CCN(C)C3)cn2)c(C)cc1C(N)=O (stereo partly drawn) [2,5-dimethyl-N-{8-[5-({[(3S)-1-methylpyrrolidin-3-yl]amino}carbonyl)pyridin-2-yl]-8-azabicyclo[3.2.1]oct-3-endo-yl}benzene-1,4-dicarboxamide] |
| < 500 | Cc1cc(C(=O)NC2CC3CCC(C2)N3c2ccc(C(=O)N[C@H]3CCCN(C)C3)cn2)c(C)cc1C(N)=O (stereo partly drawn) [2,5-dimethyl-N-{8-[5-({[(3S)-1-methylpiperidin-3-yl]amino}carbonyl)pyridin-2-yl]-8-azabicyclo[3.2.1]oct-3-endo-yl}benzene-1,4-dicarboxamide] |
| 500 to 999 | CCNC(=O)[C@@H](NC(=O)c1ccc(N2C3CCC2CC(NC(=O)c2cccc(OC)c2C)C3)nc1)c1ccc(OC)cc1 (stereo partly drawn) [N-{(1S)-2-(ethylamino)-1-{4-(methyloxy)phenyl]-2-oxoethyl}-6-[3-endo-({[2-methyl-3-(methyloxy)phenyl]carbonyl}amino)-8-azabicyclo[3.2.1]oct-8-yl]pyridine-3-carboxamide] |
| 500 to 999 | COc1cccc(C(=O)N[C@H]2C[C@H]3CC[C@@H](C2)N3c2ccc(C(=O)NCC3CC3)cn2)c1C [N-(cyclopropylmethyl)-6-[3-endo-({[2-methyl-3-(methyloxy)phenyl]carbonyl}amino)-8-azabicyclo[3.2.1]oct-8-yl]pyridine-3-carboxamide] |
| 1000 to 2000 | COc1cc(CNC(=O)c2ccc(N3[C@@H]4CC[C@H]3C[C@@H](NC(=O)c3cccc(OC)c3C)C4)nc2)cc(OC)c1 [N-{[3,5-bis(methyloxy)phenyl]methyl}-6-[3-endo-({[2-methyl-3-(methyloxy)phenyl]carbonyl}amino)-8-azabicyclo[3.2.1]oct-8-yl]pyridine-3-carboxamide] |
| 1000 to 2000 | COc1cccc(C(=O)N[C@H]2C[C@H]3CC[C@@H](C2)N3c2ccc(C(=O)Nc3ccc(F)cc3)cn2)c1C [N-(4-fluorophenyl)-6-[3-endo-({[2-methyl-3-(methyloxy)phenyl]carbonyl}amino)-8-azabicyclo[3.2.1]oct-8-yl]pyridine-3-carboxamide] |
